Data on six compounds can be found in patent EP2141163A1, “Substituted thiazolidinones, their production and utilisation as medicine” (Bayer Schering Pharma Aktiengesellschaft, priority 2008, dated 2010).

For one test, the target named is T1, PLK-1 (Homo sapiens, UniProt P53350).
T1 construct: Fusionsprotein bestehend aus GST und Plk (Kinase Domäne 33-345; MW 36 kDa, conc 0,8 µg/µl); GST; made in house; host or cells: Hi5 insect cells
Description: PLK-1 enzyme assay at 10 mM ATP (indirect HTRF assay). The class given is biochemical. The conditions noted are these: read-out: Inhibition PLK-1 IC50 [M] (10 mM ATP). As to the method: PLK Enzym-Assay (10 mM ATP)
Für den Kinaseassay wird aus Insektenzellen (Hi5) exprimiertes, durch Glutathion-Sepharose-Affinitätschromatographie und anschließender Gel-filtration (Suerdex 75) gereinigtes rekombinantes Fusionsprotein bestehend aus GST und Plk (Kinase Domäne 33-345; MW 36 kDa, conc 0,8 µg/µl) verwendet. Aliqots hiervon werden in flüssigem Stickstoff weggefroren und bei -80°C gelagert und nach dem Auftauen nur einmal verwendet.
Bei dem verwendeten Assay handelt es sich um einen indirekten HTRF-Assay, bei dem folgende Materialien und Verfahrensweisen zum Einsatz kamen. Als Substrat für die Kinasereaktion wird das biotinylierte Peptid Btn-Ahx-KKLNRTLSFAEPG-Amid x TFA, von Biosyntan, Probennr.: 6178.1 (C-Terminus in Amidform) verwendet. Hierbei handelt es sich um eine artifizielle Sequenz, die von keinem bekannten Protein abgeleitet wurde.
50 nl der in 100% Dimethylsulfoxid (DMSO) gelösten Testverbindungen (Endkonzentrationen : 0 µM und Konzentrationen im Bereich von 0,001 - 20 µM) werden mit 2 µl Enzym Arbeitslösung (0,039 ng/µl Plk-1 im Arbeitspuffer [25 mM MgCl2; 1mM DTT; 50 mM Hepes pH 7,0; 0,01% NP40; 1x Complete; 0,05% BSA] für 30 min vorinkubiert. Anschließend wird die Kinase-Reaktion durch Zugabe von 3 µl Substratlösung [16,7 mM Adenosintriphosphate (ATP) und 1,4 µM Substratpeptid (Biotin-Ttds- KKLNRTLSFAEPG -NH2)] in Arbeitspuffer gestartet, und nach 30 min durch Zugabe einer Abstopp-Lösung (100 mM EDTA, 100 mM Hepes pH 7,5, 800 mM Potassiumfluoride, 0,12% BSA, 0,4 µM SA-XLent (0,05 µM, von CIS bio international, Marcoule, Frankreich), Eu^3+ Cryptate-conjugated Rabbit anti-Mouse IgG (1,5 nM; ein mit Europiumkryptat markierter Anti-Maus-IgG-Antikörper von CIS bio international, Marcoule, Frankreich), 1 nM Anti-phospho-Serine Kinase (ein phospho-spezifischer Antikörper von Upstate Biotechnology, Dundee, Schottland), gestoppt, und bei 4°C über Nacht inkubiert. Danach wird die Menge des phosphorylierten Substratpeptids durch Messung des Resonanzenergietransfers vom Europium-markierten Antikörperkomplex zum Streptavidine-XLent bestimmt. Zu diesem Zweck wird die Fluoreszenzemission bei 620 nm und 665 nm nach Anregung bei 350 nm in einem HTRF-Messgerät, z. B. Rubystar (BMG Labtechnologies, Offenburg, Deutschland) oder Viewlux (Perkin-Elmer), bestimmt. Das Verhältnis der Emissionen bei 665 nm und bei 620 nm wird als Maß für die Menge des phosphorylierten Substratpeptids verwendet. Die Daten werden normalisiert (Enzymreaktion ohne Inhibitor = 0 % Inhibition, alle anderen Assaykomponenten, aber kein Enzym = 100 % Inhibition), und IC50-Werte werden durch einen 4 Parameter-Fit mit einer hauseigenen Software berechnet.
On the technique in general: Time-resolved FRET reads energy transfer from a long-lived donor to a nearby acceptor.

A further test concerns DU145. Description: Proliferation assay (crystal violet staining), DU145. In kind it is cell-based, human. The conditions noted are these: Homo sapiens, read-out: Inhibition IC50 [M] (DU145). As to the method: (§1) Kultivierte humane Tumorzellen (MCF7, […] menschliche Mammakarzinomazellen, bezogen von ATCC HTB22; NCI-H460, menschliche nicht kleinzellige Lungenkarzinomazellen, ATCC HTB-177; DU 145, hormonunabhängige menschliche Prostatakarzinomazellen, ATCC HTB-81; HeLa-MaTu, humane Cervixkarzinomazellen, bezogen von EPO-GmbH, Berlin,) werden in einer Dichte von 5000 (MCF7, DU145) bzw. 3000 (NCI-H460, HeLa-MaTu) Zellen/Messpunkt in einer 96-Loch Multititerplatte in 200 µl des entsprechenden Wachstumsmediums ausplattiert. Nach 24 Stunden werden die Zellen einer Platte (Nullpunkt-Platte) mit Kristallviolett gefärbt (s.u.), während das Medium der anderen Platten durch frisches Kulturmedium (200 µl), dem die Testsubstanzen in verschiedenen Konzentrationen (0 µM, sowie im Bereich 0,01 - 30 µM; die finale Konzentration des Lösungsmittels Dimethylsulfoxid beträgt 0,5%) zugesetzt sind, ersetzt. Die Zellen werden für 4 Tage in Anwesenheit der Testsubstanzen inkubiert. Die Zellproliferation wird durch Färbung der Zellen mit Kristallviolett bestimmt: Die Zellen werden durch Zugabe von 20 µl/Messpunkt einer 11%igen Glutaraldehyd-Lösung 15 min bei Raumtemperatur fixiert. Nach dreimaligem Waschen der fixierten Zellen mit Wasser werden die Platten bei Raumtemperatur getrocknet. Die Zellen werden durch Zugabe von 100 µl/Messpunkt einer 0,1%igen Kristallviolett-Lösung (pH durch Zugabe von Essigsäure auf pH3 eingestellt) gefärbt. Nach dreimaligem Waschen der gefärbten Zellen mit Wasser werden die Platten bei Raumtemperatur getrocknet. Der Farbstoff wird durch Zugabe von 100 µl/Messpunkt einer 10%igen Essigsäure-Lösung gelöst. Die Extinktion wird photometrisch bei einer Wellenlänge von 595 nm bestimmt. Die prozentuale Änderung des Zellwachstums wird durch Normalisierung der Messwerte auf die Extinktionwerte der Nullpunktplatte (=0%) und die Extinktion der unbehandelten (0 µM) Zellen (=100%) berechnet. IC50-Werte werden nach einer 4-Parameterkurvenanpassung mit Hilfe eines Firmeneigenen Computerprogramms berechnet.

Another test relates to MCF-7. Nature of the test: Proliferation assay (crystal violet staining), MCF-7. The note with it: Homo sapiens, read-out: Inhibition IC50 [M] (MCF-7). The class given is cell-based, human. As for the experimental part:
as §1

In a further test the test system is NCI-H460. Description: Proliferation assay (crystal violet staining), NCI-H460. The class given is cell-based, human. The conditions noted are these: Homo sapiens, read-out: Inhibition IC50 [M] (NCI-H460). As for the experimental part: as §1
Where [1] appears, read: DU-145, 96 h, tumour cell proliferation, 4 days incubation.
Where [2] appears, read: MCF7, 96 h, tumour cell proliferation, 4 days incubation.
The mark [3] stands for this setting: 96 h, tumour cell proliferation, 4 days incubation.

One may read the IC50 as the concentration that gives 50% inhibition.

Read-outs that look alike come from different tables or passages of the source.

T1 sequence (P53350 33-345): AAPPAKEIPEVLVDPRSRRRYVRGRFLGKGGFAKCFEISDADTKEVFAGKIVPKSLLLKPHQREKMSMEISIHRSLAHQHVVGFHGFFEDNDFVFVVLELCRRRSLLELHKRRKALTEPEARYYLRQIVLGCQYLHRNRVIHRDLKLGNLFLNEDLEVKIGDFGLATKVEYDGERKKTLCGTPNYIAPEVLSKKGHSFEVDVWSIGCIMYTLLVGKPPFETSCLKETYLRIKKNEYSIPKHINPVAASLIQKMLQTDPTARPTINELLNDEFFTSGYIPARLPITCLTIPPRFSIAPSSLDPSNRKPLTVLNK

`CCn1c(=O)c(=CNc2ccc3c(Cl)cn(C4CCN(C)CC4)c3c2)s/c1=C(/C#N)C(=O)NCC#N` [B153]: the IC50 on PLK-1 amounted to 1e-09 M; with DU145 (setting [1]), 1.4e-07 M; in the test with MCF-7 (setting [2]), 4.2e-07 M; in the test with NCI-H460 (setting [3]), 5.9e-07 M.
Taken in the same sequence, the figures for `CCn1c(=O)c(=CNc2ccc3ccn(C4CC(C)(C)N(C)C(C)(C)C4)c3c2)s/c1=C(/C#N)C(=O)NCC#N` [B162] were 3.7e-09 M, 3.5e-08 M, 1.4e-07 M and 3.7e-08 M.
In the same order, the values of `CCn1c(=O)c(=CNc2ccc3c(Cl)cn([C@H]4CC[C@H](N(C)C)CC4)c3c2)s/c1=C(/C#N)C(=O)NCC#N` [B165] are 1.3e-09 M, 1.8e-07 M, 1.7e-07 M and 6.1e-07 M.
In the same order, the values of `CCn1c(=O)c(=CNc2ccc3ccn(C4CCN(C)CC4)c3c2)s/c1=C(/C#N)C(=O)NC(c1ccco1)C(F)(F)F` (stereo not drawn) [B176] are 6.2e-08 M, 2.1e-07 M, 1.2e-07 M and 3.9e-07 M.
As to `CCn1c(=O)c(=CNc2ccc3c(C(=O)C(C)(C)C)cn(C4CCN(C)CC4)c3c2)s/c1=C(/C#N)C(=O)NCC#N` [B183], the half-maximal inhibitory concentration (IC50) worked out at 4.2e-09 M on PLK-1, 1.3e-07 M in the test with DU145 (setting [1]), 1.6e-07 M with MCF-7 (setting [2]) and 3.2e-07 M in the test on NCI-H460 (setting [3]).
As for `CCn1c(=C(C#N)C(=O)NCC(F)(F)F)sc(=CNc2cccc(CCN3CCCC3)c2)c1=O` [Beispiel 30 aus PCT/EP2005/013418, reference compound], the IC50 at PLK-1 (comparison with prior art (Tabelle 3)) is 1.1e-07 M; with DU145 (DU-145, comparison with prior art (Tabelle 4)), 6e-07 M; in the test on MCF-7 (MCF7, comparison with prior art (Tabelle 4)) it was 7e-07 M; in the test with NCI-H460 (comparison with prior art (Tabelle 4)) it was 9e-07 M.
